Measured values reported in US6667328B2, “Therapeutic agents for diabetes” (Fujimoto Brothers Co., Ltd., priority 2000, dated 2003).

Legend:
[1] = system: db/db mice; experiment: Antihyperlipidemic activities in genetically diabetic mice; type: in vivo; details: 150 mg/kg p.o. once daily for 14 days, serum
Description: (§1) Genetically diabetic db/db mice (C57BL/ksJ Jcl-dbm db/db mice) older than 8 weeks were grouped depend on their blood sugar levels of the prior measurements in order to divide groups with almost equal mean value of the sugar level. The respective groups of db/db mice were designates as the following groups: the group given the compound of the present invention, the group of troglitazone, and the group given no administrating group. For the compounds of the present invention, two doses: 75 mg/kg and 150 mg/kg, and for troglitazone, a dose of 150 mg/kg were individually given to the mice as a forced oral administration once daily for 14 days successively. These agents were suspended in 3.0% Arabic gum solution for administration. To the control group, only the same volume of 3.0% Arabic gum solution was administered. On the next day of the final administration, each mouse was […] for sampling. The blood samples were subject to serum separation. The glucose level in the serum of each group was measured. Then, a reduction rate in a glucose level (%) compared to the control group was calculated with mean value of each group according to the equation below. […] [formula]
In the same way as described in EXAMPLE 4, db/db mice were grouped in the manner by which the respective groups had almost equivalent mean blood sugar levels. The compounds 1, 3, 13, 21 and 22 of the present invention, suspended in 3.0% Arabic gum solution, were orally administrated, with a dose of 150 mg/kg, once daily for successive 14 days. The control group of mice were given the vehicle solution only. On the next day of the final administration, each mouse was bled for sampling. The blood was subjected for serum separation, and then subjected to measurements of β-lipoproteins, free fatty acids, and triglycerides. The reduction rate (%) of each measurement compared to the control group was calculated by the equation indicated in EXAMPLE 4. […] (Table 9).

[2] = system: high cholesterol-fed hamsters; experiment: Lipid lowering effects in high cholesterol-fed hamsters; type: in vivo, Syrian hamsters; details: serum, negative = elevation
Source text: According to the method described in Jpn Pharmacol Ther, 23 (suppl 4), s1047-1053 (1995), male Syrian hamstars were fed for 3 weeks with 1% cholesterol 10% coconut oil (W/W) supplemented diet, and thereby, became to be hypercholesterolemia models. Prior to administration of the compounds, under ether anesthesia, the hamsters were bled from the orbital vein for measurement of serum total cholesterol. They were grouped in the manner by which the respective groups had almost equal serum total cholesterol levels. The normal group of hamsters were fed ordinary diet. Thereafter, the compound 1 and bezafibrate were orally administered once daily at doses of 15 (for only compound 1), 30, 60 and 120 mg/kg for 7 days. Even during the treatment period, cholesterol loading was continued. Four hours later of the final administration, the hamsters were bled by cardiac puncture. The total cholesterol and triglycerides in the serum obtained were measured by the enzymatic method. The results are shown in Table 11 (the negative values mean elevation rates.)
The actions of the compounds of the present invention at a dose of 15 mg/kg were measured in the same method as described in EXAMPLE 8.

[3] = system: 3T3-L1 preadipocyte cells; experiment: Differentiation-inducing actions on adipose cells (oil red-O staining, absorbance at 490 nm); type: cell-based; details: 3T3-L1, oil red-O extract absorbance at 490 nm, ratio to control group (1.0)
Description: The cloned cell line 3T3-L1 of the preadipocyte cells at the 9-20th generation were used. The cell suspension at a concentration of 2×10^4 cells/ml was added 500 μl/well in a 24 well microplate. Then, the microplates were cultured at 37° C. in the atmosphere of 5% CO2 for 4 days with D-MEM containing 5% inactivated fetal calf serum (hereinafter abbreviated as “FCS D-MEM”). Next, the following procedures were conducted.
(1) To test compound of this invention, 500 μl/well of the following solutions was added to each well:
1) test compound-containing medium (T-MEM) in which the test compound in a stock solution (30 mM in DMSO) was diluted with FCS D-MEM containing 0.1 μM dexamethazone and 100 ng/ml insulin (hereinafter abbreviated as DEX-Ins-FCS D-MEM);
2) FCS-D-MEM; 3) DEX-Ins-FCS D-MEM; 4) 0.1% DMSO-containing DEX-Ins-FCS D-MEM for me control wells.
(2) After above additions were done, the culture plates were incubated at 37° C. in 5% CO2 for 3 days. Then, the same operations as in the procedure (1) were repeated for exchange of the culture medium. The culture plates were incubated at 37° C. in 5% CO2 for further 3 days.
(3) After incubation, the culture medium was removed from the culture plates. Then, the FCS D-MEM was added to the FCS D-MEM-wells, and next the medium prepared for containing 100 ng/ml of insulin with the FCS D-MEM (hereinafter abbreviated as “Ins-FCS D-MEM”) was added at 500 μl/well to the T-MEM wells and DEX-Ins-FCS D-MEM wells. All culture plates were incubated for 4 days.
(4) After incubation, the culture medium was removed. For cell fixation, 500 μl/well of 10% formalin in neutral buffer was added, and left at the room temperature for approximately 20 minutes or longer. Then the formalin solution was removed, and 60% 2-propanol solution was added at 500 μl/well, then quickly removed, and the oil red-O staining solution was added at 250 μl/well. The culture plates were sealed with plate seals, and left at room temperature for 30 minutes or longer. After incubation, the staining solution was removed, and the 60% 2-propanol solution was added at 500 μl/well, and quickly removed. The cells were rinsed with water a few times, and then water drops were flipped away. A cell-lysis buffer was added at 500 μl/well, and the culture plates were sealed with plate seals, and left at 37° C. for 1 hour to extract the pigments. Next, 300 μl/well of the extract solution was transferred at a 96 well micro-plates, and then the absorbance of each extract was measured at wavelength of 490 nm.
The absorbance ratios of the respective test compounds-groups to the control group, the mean absorbance of which was designated as 1.0, are shown in Table 8. Based on the judgement that the absorbance higher than that of the control group indicates a greater differentiation-inducing activity of the test compound, the compounds of the present invention were determined to have the activity to induce differentiation of preadipocytes to adipocytes, resulting in elevating insulin sensitivity of organs. Thereby, this activity would confer the efficacy in the therapy of diabetes.

[4] = system: Genetically diabetic db/db mice (C57BL/ksJ Jcl-dbm db/db mice); experiment: Blood sugar lowering actions in genetically diabetic mice; type: in vivo; details: serum glucose vs control group
Description: as §1

[5] = system: Salmonella typhimurium TA100 and TA98; experiment: Mutagenesis tests (reverse mutation test); type: cell-based; details: TA100 and TA98, direct method (−s9mix) and metabolically activated method (+s9mix)
Description: In order to examine mutagenecity of the compound 1, the reverse mutation test was conducted with use of Salmonella typhimurium TA100 and TA98.

[6] = system: mice; experiment: Acute toxicity tests with single dosing in mice; type: in vivo; details: 2000 mg/kg single oral dose, observed for 2 weeks
Description: The compounds (the compound 1 and 10) of the present invention were singly orally administered to each mouse at a dose of 2000 mg/kg.

[7] = system: fructose-induced hyperlipidemic rats; experiment: Hypotriglyceridemic activity in fructose-induced hyperlipidemic rats; type: in vivo, Sprague Dawley rats; details: fructose-loaded rats, 30 mg/kg p.o. once daily for 7 days; for inhibition in vivo at 30 mg/kg: Rattus norvegicus, po, 168 h, read-out: Reduction in Serum Triglyceride (%)
Description: The compounds were tested for a hypotriglyceridemic activity in fructose-induced hyperlipidemic rats in accordance with the method described in Nippon Yakurigaku Zasshi, 92 (3), 175-180 (1988). Sprague Dawley rats were grouped by the ranking method of body weight. Then, instead of drinking water, rats were given 75% fructose aqueous ad libitum for one week, thereby, resulting in the state of hypertriglyceridemia. The compounds of the present invention, suspended in 3% Arabic gum aqueous solution, and a dose of 30 mg/kg was orally administrated once daily for 7 days during the fructose-loading period. The control group of rats were given 3% Arabic gum aqueous solution only. Two hours later of the final administration, the rats were bled from the abdominal aorta to measure serum triglycerides and total cholesterol. The reduction rate (%) of each measurement compared to the control groups was calculated according to the equation indicated in EXAMPLE 4.

[8] = 15 mg/kg oral once daily for 7 days
[9] = 30 mg/kg oral once daily for 7 days
[10] = 60 mg/kg oral once daily for 7 days
[11] = 120 mg/kg oral once daily for 7 days
[12] = 75 mg/kg oral once daily for 14 days
[13] = 150 mg/kg oral once daily for 14 days

Compound	Reduction Rate (%) Free Fatty Acids [1]	Reduction Rate (%) Triglycerides [1]	Reduction Rate (%) β-lipoproteins [1]	Reduction Rate (%) Total cholesterol [2, 8]	Reduction Rate (%) Triglyceride [2, 8]	Reduction Rate (%) Total cholesterol [2, 9]	Reduction Rate (%) Triglyceride [2, 9]	Reduction Rate (%) Total cholesterol [2, 10]	Reduction Rate (%) Triglyceride [2, 10]	Reduction Rate (%) Total cholesterol [2, 11]	Reduction Rate (%) Triglyceride [2, 11]	Absorbance Ratio [3]	Reduction in Blood Glucose (%) [4, 12]	Reduction in Blood Glucose (%) [4, 13]	Mutagenicity (number of reversely mutated colonies) [5]	Survival after single oral dose [6]	Reduction in Serum Triglyceride (%) [7]	inhibition in vivo at 30 mg/kg [7]
N#CN=C1NC(=O)/C(=C\c2ccc(C=Cc3ccccc3)cc2)S1 [Compound 1, 2-(N-Cyanoimino)-5-[(E)-4-stylylbenzylidene]thiazolidin-4-one]	39%	69%	51%	26%	60%	25%	62%	29%	69%	41%	80%	1.46	31%	37%	non-mutagenic	all 3 mice given the respective compounds survived	47%	
N#CN=C1NC(=O)C(=Cc2ccc(OCCc3ccccc3)cc2)S1 [Compound 10, 2-(N-Cyanoimino)-5-(4-phenethyloxybenzylidene)thiazolidin-4-one]												2.12				all 3 mice given the respective compounds survived		39%
N#CN=C1NC(=O)C(=Cc2ccc(Oc3ccccc3)cc2)S1 [Compound 22, 2-(N-Cyanoimino)-5-(4-phenoxybenzylidene)thiazolidin-4-one]	41%	65%	56%									1.73	16%	34%				65%
